What was measured:
[1] = system: t(4;11)-positive ALL cells; format: cell-based, human; conditions: for therapeutic index and specificity towards t(4;11)-positive ALL cells: SEM, RS4;11, MLL-AF4 patient cells versus normal bone marrows, FIG. 6
Excerpt: VPA, D. romidepsin, E. MS-275. Error bars represent standard errors of the mean (SEM).

SEM cell line = experiment: Proto-oncogene mRNA expression by quantitative real-time PCR after exposure to HDAC inhibitors, SEM; format: cell-based, human
Procedure: (§1) FIGS. 8A, 8B, 8C, 8D, 8E, 8F and 8G show relative proto-oncogene mRNA expression after exposure to HDAC inhibitors in SEM cell line. FIGS. 8AA, 8BB, 8CC, 8DD, 8EE, 8FF and 8GG show relative proto-oncogene mRNA expression after exposure to HDAC inhibitors in RS4;11 cell line. mRNA expression levels of the proto-oncogenes A. RAN, B. SET, C. […] For RUNX1, PARK7, DIAPH1 and HOXA9 data after 24 hours exposure are presented as well (hatch fill). Expression levels in SEM or RS4;11 were set to 100%.
(§2) Total RNA was reverse transcribed and the obtained cDNA was used to quantify mRNA expression by using quantitative real-time PCR analysis as described in Stam et al., Haematologica 92(11):1565-1568, 2007). […] Per experiment, samples were analyzed in duplicate and all experiments were conducted twice. […]
(§3) To explore the mechanism of action of HDAC inhibitors on induced leukemic cell death in MLL-rearranged ALL, the t(4;11)-positive ALL cell lines SEM and RS4;11 were exposed to various concentrations of TSA, SAHA, VPA, MS-275 and romidepsin for 6, 24 or 48 hours. During these exposures, cell viability was monitored by trypan blue exclusion (FIG. 7). Quantitative real-time PCR was used to determine the mRNA expression levels of MYC, SET, RUNXI, RAN, HOXA9, DIAPHI and PARK7 in the cell lines SEM and RS4;11 during exposure to the different HDAC inhibitors. […]

RS4;11 cell line = experiment: Proto-oncogene mRNA expression by quantitative real-time PCR after exposure to HDAC inhibitors, RS4;11; format: cell-based, human; conditions: RS4;11, mRNA by quantitative real-time PCR
Procedure: as §1, §2, §3

[2] = system: healthy hematopoietic bone marrow cells

Row | Compound | therapeutic index and specificity towards t(4;11)-positive ALL cells [1] | expression of the selected proto-oncogenes (SEM cell line) | expression of the selected proto-oncogenes (RS4;11 cell line) | in vitro cytotoxicity on the leukemic cell population [1] | effect on healthy hematopoietic bone marrow cells [2]
1 | Nc1ccccc1NC(=O)c1ccc(CNC(=O)OCc2cccnc2)cc1 [MS-275] | high therapeutic index and a preferred specificity towards targeting t(4;11)-positive ALL cells |  |  |  | 
2 | O=C(CCCCCCC(=O)Nc1ccccc1)NO [Vorinostat] |  | consistently repressed most of the selected proto-oncogenes | consistently repressed most of the selected proto-oncogenes |  | 
3 | C/C=C1\NC(=O)[C@H]2CSSCC/C=C/[C@H](CC(=O)N[C@H](C(C)C)C(=O)N2)OC(=O)[C@H](C(C)C)NC1=O [romidepsin, (1S,4S,7Z,10S,16E,21R)-7-ethylidene-4,21-bis(1-methylethyl)-2-oxa-12,13-dithia-5,8,20,23-tetrazabicyclo[8.7.6]tricos-16-ene-3,6,9,19,22-pentone] | high therapeutic index and a preferred specificity towards targeting t(4;11)-positive ALL cells |  |  |  | 
4 | CC(/C=C/C(=O)NO)=C\[C@@H](C)C(=O)c1ccc(N(C)C)cc1 [trichostatin A] | high therapeutic index and a preferred specificity towards targeting t(4;11)-positive ALL cells | consistently repressed most of the selected proto-oncogenes | consistently repressed most of the selected proto-oncogenes | consistent eradication of the entire leukemic cell population | harmless for healthy hematopoietic bone marrow cells

Source: patent US8859502B2, “Therapy for MLL-rearranged leukemia” (Celgene Corporation, priority 2010, dated 2014)
